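Results reflect a 48-hour exposure of cells in 96-well plates to compound at five concentrations. GI50: concentration for 50% inhibition of growth. TGI: concentration producing complete growth inhibition.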
Tests used:
Experiment in all cases: NCI-60 cell line screen, 48 h
M14 melanoma = system: M14 melanoma
A498 renal = system: A498 renal
SK-MEL-28 melanoma = system: SK-MEL-28 melanoma
BT-549 breast = system: BT-549 breast
K-562 leukemia = system: K-562 leukemia
MCF7 breast = system: MCF7 breast
EKVX NSCLC = system: EKVX NSCLC
SF-268 CNS = system: SF-268 CNS
SNB-75 CNS = system: SNB-75 CNS
SNB-19 CNS = system: SNB-19 CNS
MDA-MB-231 breast = system: MDA-MB-231 breast
OVCAR-3 ovarian = system: OVCAR-3 ovarian
HS 578T breast = system: HS 578T breast
KM12 colon = system: KM12 colon
HOP-62 NSCLC = system: HOP-62 NSCLC
NCI-H23 lung = system: NCI-H23 lung
LOX IMVI melanoma = system: LOX IMVI melanoma
SF-295 CNS = system: SF-295 CNS
HOP-92 NSCLC = system: HOP-92 NSCLC
IGROV1 ovarian = system: IGROV1 ovarian
NCI/ADR-RES ovarian = system: NCI/ADR-RES ovarian
SR leukemia = system: SR leukemia
MOLT-4 leukemia = system: MOLT-4 leukemia
MDA-MB-435 = system: MDA-MB-435
MALME-3M melanoma = system: MALME-3M melanoma
786-0 renal = system: 786-0 renal
NCI-H522 lung = system: NCI-H522 lung
UACC-62 melanoma = system: UACC-62 melanoma
HCC-2998 colon = system: HCC-2998 colon
HCT-15 colon = system: HCT-15 colon
CAKI-1 renal = system: CAKI-1 renal
UO-31 renal = system: UO-31 renal
NCI-H460 lung = system: NCI-H460 lung
SW-620 colon = system: SW-620 colon
OVCAR-8 ovarian = system: OVCAR-8 ovarian
HCT-116 colon = system: HCT-116 colon
ACHN renal = system: ACHN renal
PC-3 prostate = system: PC-3 prostate
OVCAR-4 ovarian = system: OVCAR-4 ovarian
SF-539 CNS = system: SF-539 CNS
A549 NSCLC = system: A549 NSCLC
OVCAR-5 ovarian = system: OVCAR-5 ovarian
RXF 393 renal = system: RXF 393 renal
COLO 205 colon = system: COLO 205 colon
SN12C renal = system: SN12C renal
DU-145 prostate = system: DU-145 prostate
SK-MEL-5 melanoma = system: SK-MEL-5 melanoma
U251 CNS = system: U251 CNS
HT29 colon = system: HT29 colon
SK-MEL-2 melanoma = system: SK-MEL-2 melanoma

Compound: COCCn1cc(-c2csc(-c3c[nH]c4ccc(F)cc34)n2)c2cccnc21
- GI50 (M14 melanoma): 3.14 µM
- TGI (M14 melanoma): > 100 µM
- GI50 (A498 renal): 3.26 µM
- TGI (A498 renal): 9.4 µM
- GI50 (SK-MEL-28 melanoma): 7.73 µM
- TGI (SK-MEL-28 melanoma): > 100 µM
- GI50 (BT-549 breast): 4.26 µM
- TGI (BT-549 breast): > 100 µM
- GI50 (K-562 leukemia): 2.12 µM
- TGI (K-562 leukemia): > 100 µM
- GI50 (MCF7 breast): 2.09 µM
- TGI (MCF7 breast): > 100 µM
- GI50 (EKVX NSCLC): 1.98 µM
- TGI (EKVX NSCLC): > 100 µM
- GI50 (SF-268 CNS): 7.67 µM
- TGI (SF-268 CNS): > 100 µM
- GI50 (SNB-75 CNS): 2.97 µM
- TGI (SNB-75 CNS): > 100 µM
- GI50 (SNB-19 CNS): 98 µM
- TGI (SNB-19 CNS): > 100 µM
- GI50 (MDA-MB-231 breast): 2.59 µM
- TGI (MDA-MB-231 breast): > 100 µM
- GI50 (OVCAR-3 ovarian): 3.34 µM
- TGI (OVCAR-3 ovarian): > 100 µM
- GI50 (HS 578T breast): 8.82 µM
- TGI (HS 578T breast): > 100 µM
- GI50 (KM12 colon): 1.77 µM
- TGI (KM12 colon): > 100 µM
- GI50 (HOP-62 NSCLC): 2.02 µM
- TGI (HOP-62 NSCLC): > 100 µM
- GI50 (NCI-H23 lung): 3.88 µM
- TGI (NCI-H23 lung): > 100 µM
- GI50 (LOX IMVI melanoma): 3.44 µM
- TGI (LOX IMVI melanoma): > 100 µM
- GI50 (SF-295 CNS): 3.2 µM
- TGI (SF-295 CNS): > 100 µM
- GI50 (HOP-92 NSCLC): 6.28 µM
- TGI (HOP-92 NSCLC): > 100 µM
- GI50 (IGROV1 ovarian): 3.49 µM
- TGI (IGROV1 ovarian): > 100 µM
- GI50 (NCI/ADR-RES ovarian): 2.17 µM
- TGI (NCI/ADR-RES ovarian): 29.2 µM
- GI50 (SR leukemia): 3.24 µM
- TGI (SR leukemia): > 100 µM
- GI50 (MOLT-4 leukemia): 5.56 µM
- TGI (MOLT-4 leukemia): > 100 µM
- GI50 (MDA-MB-435): 0.89 µM
- TGI (MDA-MB-435): 14.3 µM
- GI50 (MALME-3M melanoma): 4.54 µM
- TGI (MALME-3M melanoma): > 100 µM
- GI50 (786-0 renal): 5.12 µM
- TGI (786-0 renal): > 100 µM
- GI50 (NCI-H522 lung): 2.19 µM
- TGI (NCI-H522 lung): > 100 µM
- GI50 (UACC-62 melanoma): 6.78 µM
- TGI (UACC-62 melanoma): > 100 µM
- GI50 (HCC-2998 colon): 4.54 µM
- TGI (HCC-2998 colon): > 100 µM
- GI50 (HCT-15 colon): 2.35 µM
- TGI (HCT-15 colon): > 100 µM
- GI50 (CAKI-1 renal): 9.54 µM
- TGI (CAKI-1 renal): > 100 µM
- GI50 (UO-31 renal): 4.41 µM
- TGI (UO-31 renal): > 100 µM
- GI50 (NCI-H460 lung): 3.38 µM
- TGI (NCI-H460 lung): > 100 µM
- GI50 (SW-620 colon): 3.63 µM
- TGI (SW-620 colon): > 100 µM
- GI50 (OVCAR-8 ovarian): 4.1 µM
- TGI (OVCAR-8 ovarian): > 100 µM
- GI50 (HCT-116 colon): 3.77 µM
- TGI (HCT-116 colon): > 100 µM
- GI50 (ACHN renal): 5.27 µM
- TGI (ACHN renal): > 100 µM
- GI50 (PC-3 prostate): 5.07 µM
- TGI (PC-3 prostate): > 100 µM
- GI50 (OVCAR-4 ovarian): 2.59 µM
- TGI (OVCAR-4 ovarian): > 100 µM
- GI50 (SF-539 CNS): 8.86 µM
- TGI (SF-539 CNS): > 100 µM
- GI50 (A549 NSCLC): 4.51 µM
- TGI (A549 NSCLC): > 100 µM
- GI50 (OVCAR-5 ovarian): 10.1 µM
- TGI (OVCAR-5 ovarian): > 100 µM
- GI50 (RXF 393 renal): 5.91 µM
- TGI (RXF 393 renal): > 100 µM
- GI50 (COLO 205 colon): 2.69 µM
- TGI (COLO 205 colon): > 100 µM
- GI50 (SN12C renal): > 100 µM
- TGI (SN12C renal): > 100 µM
- GI50 (DU-145 prostate): 18.8 µM
- TGI (DU-145 prostate): > 100 µM
- GI50 (SK-MEL-5 melanoma): 2.69 µM
- TGI (SK-MEL-5 melanoma): > 100 µM
- GI50 (U251 CNS): 5.14 µM
- TGI (U251 CNS): > 100 µM
- GI50 (HT29 colon): 2.9 µM
- TGI (HT29 colon): > 100 µM
- GI50 (SK-MEL-2 melanoma): 3.89 µM
- TGI (SK-MEL-2 melanoma): > 100 µM

Reference: PubChem BioAssay (NCI)
